Marks after values point to notes of the source that are not given here.
Legend:
Assay type in all cases: in vivo
Septoria nodorum = experiment: Test D: wheat glume blotch, preventive spray on wheat seedlings, visual disease rating; details: 40 ppm (marked *), 100 = 100% disease control, 0 = no disease control relative to controls; for pest or weed control at 40 ppm: Parastagonospora nodorum
Summary of the method: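 Wheat seedlings sprayed to run-off with compound at 200 ppm (500 g/ha), or 40 ppm where marked, then inoculated with Septoria nodorum spores the next day. Held 48 h in saturated atmosphere at 20° C, then 7 days in a growth chamber at 20° C before visual disease rating.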

Erysiphe graminis = experiment: Test A: wheat powdery mildew, preventive spray on wheat seedlings, visual disease rating; details: 40 ppm (marked *), 100 = 100% disease control, 0 = no disease control relative to controls; for pest or weed control at 40 ppm: Blumeria graminis, 192 h
Summary of the method: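 Seedlings were sprayed to run-off with test suspension at 200 ppm (500 g/ha), or 40 ppm where marked. They were dust-inoculated with spores the next day and kept 8 days at 20 °C. Disease was then rated visually.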

Septoria tritici = experiment: Test C: wheat leaf blotch, preventive spray on wheat seedlings, visual disease rating; details: 40 ppm (marked *), 100 = 100% disease control, 0 = no disease control relative to controls; for pest or weed control at 40 ppm: Zymoseptoria tritici, 504 h
Summary of the method: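 Wheat seedlings were sprayed to run-off with test suspension at 200 ppm (500 g/ha), or at 40 ppm where marked *. They were inoculated with spores the next day and held in saturated atmosphere at 20° C for 48 h. After a further 19 days in a growth chamber at 20° C, disease was rated visually.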

Botrytis cinerea = experiment: Test F: tomato Botrytis, preventive spray on tomato seedlings, visual disease rating; details: 40 ppm (marked *), 100 = 100% disease control, 0 = no disease control relative to controls; for pest or weed control at 40 ppm: Botrytis cinerea
Summary of the method: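 Preventive test: tomato seedlings sprayed to run-off at 200 ppm (500 g/ha) or, where marked *, 40 ppm, then inoculated next day with B. cinerea spores. Kept 48 h at saturated humidity and 20° C, then 3 days at 24° C. Disease assessed visually.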

Alternaria solani = experiment: Test E: tomato early blight, preventive spray on tomato seedlings, visual disease rating; details: 40 ppm (marked *), 100 = 100% disease control, 0 = no disease control relative to controls; for pest or weed control at 40 ppm: Alternaria solani
Summary of the method: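 Tomato seedlings sprayed to run-off with test suspension at 200 ppm (equivalent to 500 g/ha), or 40 ppm where marked "*", as a preventive treatment before A. solani challenge. Disease then rated visually.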

[1] = test system: Puccinia recondita f. sp. tritici; experiment: Test B: wheat leaf rust, preventive spray on wheat seedlings, visual disease rating; details: 40 ppm (marked *), 100 = 100% disease control, 0 = no disease control relative to controls; for pest or weed control at 40 ppm: 192 h
Summary of the method: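 Seedlings were sprayed to run-off at 200 ppm (500 g/ha), or at 40 ppm where marked *, then inoculated with spores the next day. Plants were held at saturated humidity at 20° C for 24 h and then in a growth chamber at 20° C for 7 days before visual disease rating.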

Compound	Test D rating (disease control, wheat glume blotch) (Septoria nodorum)	Test A rating (disease control, wheat powdery mildew) (Erysiphe graminis)	Test C rating (disease control, wheat leaf blotch) (Septoria tritici)	Test F rating (disease control, tomato Botrytis) (Botrytis cinerea)	Test E rating (disease control, tomato early blight) (Alternaria solani)	Test B rating (disease control, wheat leaf rust) [1]	pest or weed control at 40 ppm (Septoria nodorum) [%]	pest or weed control at 40 ppm (Erysiphe graminis) [%]	pest or weed control at 40 ppm (Septoria tritici) [%]	pest or weed control at 40 ppm (Botrytis cinerea) [%]	pest or weed control at 40 ppm (Alternaria solani) [%]	pest or weed control at 40 ppm [1] [%]
Fc1cncc(-c2c(-c3ccccc3F)nnc(Cl)c2-c2c(F)cc(F)cc2F)c1 [Compound 39]	100* %	100* %	100* %	100* %	100* %	100* %						
COc1ccncc1-c1c(-c2ccccc2F)nnc(Cl)c1-c1c(F)cc(F)cc1F [Compound 40]	60* %	73* %	100* %	100* %	93* %	100* %						
Cc1nnc(-c2ccccc2F)c(-c2cncc(F)c2)c1-c1c(F)cc(F)cc1F [Compound 41]	98* %	97* %	100* %	100* %	98* %	100* %						
COc1ccncc1-c1c(-c2ccccc2F)nnc(C)c1-c1c(F)cc(F)cc1F [Compound 42]	0* %	78* %	100* %	100* %	41* %	99* %						
COc1cc(OC)c(Cl)c(-c2c(-c3ccccc3F)nnc(Cl)c2-c2c(F)cc(F)cc2F)c1 [Compound 43]	100* %	99* %	97* %	100* %	99* %	100* %						
COc1cncc(-c2c(-c3ccccc3F)nnc(Cl)c2-c2c(F)cc(F)cc2F)c1 [Compound 44, 3-chloro-6-(2-fluorophenyl)-5-(5-methoxy-3-pyridinyl)-4-(2,4,6-trifluorophenyl)pyridazine]							100	100	99	100	100	99
COc1cc(OC)cc(-c2c(-c3ccccc3F)nnc(Cl)c2-c2c(F)cc(F)cc2F)c1 [Compound 45, 3-chloro-5-(3,5-dimethoxyphenyl)-6-(2-fluorophenyl)-4-(2,4,6-trifluorophenyl)pyridazine]							100	100	99	100	100	100
COc1cncc(-c2c(-c3ccccc3F)nnc(C)c2-c2c(F)cc(F)cc2F)c1 [Compound 46]	0* %	97* %	99* %	100* %	100* %	100* %						
